# Results reported in article PMC11882969 (Nature Communications, 2025).
# Where “and” joins values, the source holds several entries; their conditions need not be identical. Equal values may be shown once. Read-outs that look alike come from different tables or passages of the source.
# Target: hCB1 (Homo sapiens, UniProt P21554)
# Assay: bioSensAll ebBRET signaling profiling, hCB1
# Format: cell-based
# Design: host or cells: HEK293SL cells, transient PEI transfection
# Conditions: for Gi1 hCB1 response: Gi1 biosensor; for Gi1 hCB1 / GoB hCB1: single replicate values, FigS6a; for Emax [95% CI]: normalized to CP-55,940; for EC50: read-out: EC50 [95% CI]
# Chain of hCB1 (P21554 whole entry): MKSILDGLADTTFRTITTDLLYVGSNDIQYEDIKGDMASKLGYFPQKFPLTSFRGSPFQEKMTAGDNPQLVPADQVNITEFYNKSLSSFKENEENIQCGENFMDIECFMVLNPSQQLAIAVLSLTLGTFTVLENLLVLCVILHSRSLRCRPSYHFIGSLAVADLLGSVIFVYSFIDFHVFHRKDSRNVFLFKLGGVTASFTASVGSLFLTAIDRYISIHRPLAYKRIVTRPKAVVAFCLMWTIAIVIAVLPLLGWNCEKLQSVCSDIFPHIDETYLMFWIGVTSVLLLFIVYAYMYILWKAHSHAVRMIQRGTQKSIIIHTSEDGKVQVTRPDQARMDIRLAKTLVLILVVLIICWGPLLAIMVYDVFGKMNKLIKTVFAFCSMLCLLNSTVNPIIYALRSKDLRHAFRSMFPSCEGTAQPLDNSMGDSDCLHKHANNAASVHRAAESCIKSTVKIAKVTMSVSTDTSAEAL
structure (smiles),measurement,setting,value
Cc1cc(C(=O)N2CC3(CCC3)[C@H]2[C@@H]2CCCO2)nn1-c1cccc(C(F)(F)F)c1 [‘5490],Gi1 hCB1 response,Log [Compound] (M) -4.22186,126.936
same,Gi1 hCB1 response,Log [Compound] (M) -4.63927,115.566
same,Gi1 hCB1 response,Log [Compound] (M) -5.47381,67.3119
same,Gi1 hCB1 response,Log [Compound] (M) -5.89285,63.8428
same,Gi1 hCB1 response,Log [Compound] (M) -6.31878,33.6054
same,Gi1 hCB1 response,Log [Compound] (M) -6.72585,15.275
same,Gi1 hCB1 response,Log [Compound] (M) -7.14267,11.8954
same,Gi1 hCB1 response,Log [Compound] (M) -7.55284,0.9509
same,Gi1 hCB1 response,Log [Compound] (M) -8,4.733
same,Gi1 hCB1 response,Log [Compound] (M) -8.22186,-9.009
same,Gi1 hCB1 response,Log [Compound] (M) -8.39794,1.018
same,Gi1 hCB1 response,Log [Compound] (M) -8.68787,-1.578
same,Gi1 hCB1 response,Log [Compound] (M) -9.15521,-18.3419
same,Gi1 hCB1 response,Log [Compound] (M) -9.61989,1.018
same,Gi1 hCB1 response,Log [Compound] (M) -10.0969,0.1452
same,Gi1 hCB1 response,Log [Compound] (M) -10.5529,4.89
same,Gi1 hCB1 response,Log [Compound] (M) -11.0177,13.5964
same,Gi1 hCB1 response,Log [Compound] (M) -11.4949,-2.608
same,Gi1 hCB1 response,Log [Compound] (M) -11.9208,1.712
same,Gi1 hCB1 response,Log [Compound] (M) -12.3979,-1.959
same,Gi1 hCB1 response,Log [Compound] (M) -12.8861,-5.584
same,Gi1 hCB1 response,"Log [Compound] (M) -13, individual replicate values",3.39 and 3.458
same,Gi1 hCB1,Log [Compound] (M) -4.22186,94.6851
same,GoB hCB1,Log [Compound] (M) -4.22186,96.1825
same,Gi1 hCB1,Log [Compound] (M) -4.63927,84.6644
same,GoB hCB1,Log [Compound] (M) -4.63927,79.6378
same,Gi1 hCB1,Log [Compound] (M) -5.05788,72.2386
same,GoB hCB1,Log [Compound] (M) -5.05788,59.1548
same,Gi1 hCB1,Log [Compound] (M) -5.47381,56.452
same,GoB hCB1,Log [Compound] (M) -5.47381,52.9325
same,Gi1 hCB1,Log [Compound] (M) -5.89285,36.6417
same,GoB hCB1,Log [Compound] (M) -5.89285,40.0205
same,Gi1 hCB1,Log [Compound] (M) -6.31878,21.1018
same,GoB hCB1,Log [Compound] (M) -6.31878,23.8534
same,Gi1 hCB1,Log [Compound] (M) -6.72585,10.5569
same,GoB hCB1,Log [Compound] (M) -6.72585,12.0564
same,Gi1 hCB1,Log [Compound] (M) -7.14267,5.469
same,GoB hCB1,Log [Compound] (M) -7.14267,9.719
same,Gi1 hCB1,Log [Compound] (M) -7.55284,7.104
same,GoB hCB1,Log [Compound] (M) -7.55284,4.971
same,Gi1 hCB1,Log [Compound] (M) -8,4.236
same,GoB hCB1,Log [Compound] (M) -8,4.953
same,Gi1 hCB1,Log [Compound] (M) -8.22186,2.062
same,GoB hCB1,Log [Compound] (M) -8.22186,0.1334
same,Gi1 hCB1,Log [Compound] (M) -8.39794,3.018
same,GoB hCB1,Log [Compound] (M) -8.39794,6.805
same,Gi1 hCB1,Log [Compound] (M) -8.68787,2.71
same,GoB hCB1,Log [Compound] (M) -8.68787,-2.061
same,Gi1 hCB1,Log [Compound] (M) -9.15521,2.078
same,GoB hCB1,Log [Compound] (M) -9.15521,0.565
same,Gi1 hCB1,Log [Compound] (M) -9.61989,1.014
same,GoB hCB1,Log [Compound] (M) -9.61989,0.7988
same,Gi1 hCB1,Log [Compound] (M) -10.0969,3.712
same,GoB hCB1,Log [Compound] (M) -10.0969,2.4173
same,Gi1 hCB1,Log [Compound] (M) -10.5529,2.602
same,GoB hCB1,Log [Compound] (M) -10.5529,1.752
same,Gi1 hCB1,Log [Compound] (M) -11.0177,1.5536
same,GoB hCB1,Log [Compound] (M) -11.0177,4.395
same,Gi1 hCB1,Log [Compound] (M) -11.4949,3.327
same,GoB hCB1,Log [Compound] (M) -11.4949,4.324
same,Gi1 hCB1,Log [Compound] (M) -11.9208,2.772
same,GoB hCB1,Log [Compound] (M) -11.9208,3.352
same,Gi1 hCB1,Log [Compound] (M) -12.3979,2.124
same,GoB hCB1,Log [Compound] (M) -12.3979,2.741
same,Gi1 hCB1,Log [Compound] (M) -12.8861,2.556
same,GoB hCB1,Log [Compound] (M) -12.8861,2.3094
same,Gi1 hCB1,Log [Compound] (M) -13,3.496 and 2.864
same,GoB hCB1,Log [Compound] (M) -13,2.327 and 3.748
same,pEC50 [95% CI],hCB1 Gi1,5.6 [5.5 – 5.6]
same,Emax [95% CI],hCB1 Gi1,98 [94 – 102]
same,pEC50 [95% CI],hCB1 GoB,5.2 [4.8 – 5.6]
same,Emax [95% CI],hCB1 GoB,118 [94 – 143]
same,pEC50 [95% CI],hCB1 Gz,5.6 [5.2 – 6.1]
same,EC50,hCB1 Gi1,2800 nM
same,EC50,hCB1 GoB,6730 nM
same,EC50,hCB1 Gz,2470 nM
